The values below come from ChEMBL document CHEMBL1287710, “A novel small-molecule inhibitor of IL-6 signalling” (Bioorg Med Chem Lett, 2010).

A word on the inhibition: it is the change of the read-out against control, counted positive when it falls.

Activity calls are given as the source filed them. The rule behind the calls is not given here.

Assay [1] has as its target T1, Signal transducer and activator of transcription 1-alpha/beta (Homo sapiens) (UniProt P42224).
T1 sequence (whole entry): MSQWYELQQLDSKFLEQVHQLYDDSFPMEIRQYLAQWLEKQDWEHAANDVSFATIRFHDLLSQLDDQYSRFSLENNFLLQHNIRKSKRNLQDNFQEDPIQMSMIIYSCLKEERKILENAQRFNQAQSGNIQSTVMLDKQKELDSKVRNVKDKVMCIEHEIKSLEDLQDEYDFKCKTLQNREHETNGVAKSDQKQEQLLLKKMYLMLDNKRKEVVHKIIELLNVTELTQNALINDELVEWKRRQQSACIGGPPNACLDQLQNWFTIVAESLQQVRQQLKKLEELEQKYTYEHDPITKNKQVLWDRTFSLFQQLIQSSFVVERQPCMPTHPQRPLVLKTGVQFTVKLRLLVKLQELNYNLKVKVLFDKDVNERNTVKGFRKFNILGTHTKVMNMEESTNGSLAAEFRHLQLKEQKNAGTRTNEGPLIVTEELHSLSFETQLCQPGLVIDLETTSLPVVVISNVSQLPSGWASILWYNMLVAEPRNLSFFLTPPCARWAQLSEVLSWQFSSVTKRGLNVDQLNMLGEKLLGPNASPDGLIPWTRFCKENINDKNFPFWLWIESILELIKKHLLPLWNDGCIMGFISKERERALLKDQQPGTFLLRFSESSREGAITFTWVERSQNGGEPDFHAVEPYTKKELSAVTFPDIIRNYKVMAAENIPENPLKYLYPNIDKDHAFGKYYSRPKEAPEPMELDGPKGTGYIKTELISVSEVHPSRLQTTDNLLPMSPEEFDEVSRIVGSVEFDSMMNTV
Put plainly: Induction of STAT1 phosphorylation in human HeLa cells at 30 to 100 uM by Western blot analysis. The class given is cell-based. Background: In western blotting, separated proteins are transferred to a membrane and probed.

Assay [2] deals with Signal transducer and activator of transcription 3 (Homo sapiens) (UniProt P40763). Briefly: Inhibition of IL-6 induced STAT3 phosphorylation at tyrosine 705 residue in serum-starved human HeLa cells at 10 to 30 uM after 20 mins by Western blot analysis. The class given is cell-based.
Assay [3] relates to MDA-MB-231. Briefly: Cytostatic activity against human MDA-MB-231 cells assessed as cell viability after 24 hrs by trypan blue assay. In kind it is functional, cell-based.
For assay [4], the target named is Signal transducer and activator of transcription 3 (Homo sapiens) (UniProt P40763). Briefly: Inhibition of STAT3 in IL-6-stimulated human MDA-MB-231 cells assessed as reduction in cell viability up to 125 uM after 24 hrs by MTS assay. In kind it is cell-based. (In general: Formazan colour is commonly taken as a measure of viable cells.)
Assay [5] has the same target. Briefly: Inhibition of IL-6 induced STAT3 phosphorylation at tyrosine 705 residue in serum-starved human MDA-MB-231 cells at 30 to 100 uM after 20 mins by Western blot analysis. In kind it is cell-based.
For assay [6] the target is unchanged. Put plainly: Inhibition of STAT3 in human HeLa cells at 5 to 100 uM by luciferase reporter assay. The class given is cell-based. On the technique in general: Reporter assays use an easily measured gene product as a stand-in for the process of interest.

Signal transducer and activator of transcription 3 (Homo sapiens), sequence (P40763 whole entry): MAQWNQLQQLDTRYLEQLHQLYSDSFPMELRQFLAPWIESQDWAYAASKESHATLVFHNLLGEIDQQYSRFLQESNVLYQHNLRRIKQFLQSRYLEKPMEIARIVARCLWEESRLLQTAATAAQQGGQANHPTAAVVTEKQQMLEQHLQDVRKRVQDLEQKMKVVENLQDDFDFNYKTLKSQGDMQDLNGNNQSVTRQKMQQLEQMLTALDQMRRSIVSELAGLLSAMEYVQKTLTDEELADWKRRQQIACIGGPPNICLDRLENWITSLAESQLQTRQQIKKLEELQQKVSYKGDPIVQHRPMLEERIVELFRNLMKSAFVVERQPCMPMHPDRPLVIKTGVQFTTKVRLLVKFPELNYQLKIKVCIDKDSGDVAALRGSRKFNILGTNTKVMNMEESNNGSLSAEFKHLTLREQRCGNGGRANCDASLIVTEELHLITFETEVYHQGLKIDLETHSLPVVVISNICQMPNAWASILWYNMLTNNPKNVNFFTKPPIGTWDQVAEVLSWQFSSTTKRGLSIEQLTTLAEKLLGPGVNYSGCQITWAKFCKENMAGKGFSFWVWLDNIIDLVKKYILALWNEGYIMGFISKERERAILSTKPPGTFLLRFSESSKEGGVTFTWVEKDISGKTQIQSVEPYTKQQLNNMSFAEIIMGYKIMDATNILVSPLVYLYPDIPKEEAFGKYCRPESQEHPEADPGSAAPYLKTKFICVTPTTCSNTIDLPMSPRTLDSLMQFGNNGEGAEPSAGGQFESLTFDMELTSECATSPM

As for `Cc1ccc(-c2sc(C(=O)NCc3cccs3)cc2S(=O)(=O)N2CCCC2)cc1`, the result in assay [1], in assay [2] and in assay [5] was Active. In assay [3], the result was inactive. In addition, the inhibition in assay [4] is 40%. In assay [6], this compound showed an Activity of 15 µM.
